Experimental data from ChEMBL document CHEMBL3745631, “Discovery of highly potent and selective Bruton's tyrosine kinase inhibitors: Pyridazinone analogs with improved metabolic stability” (Bioorg Med Chem Lett, 2016).

What was measured:
[1] = target: Protein kinase C theta type (Homo sapiens) (UniProt Q04759); assay: Inhibition of PKCtheta (unknown origin) at 1 uM
[2] = target: Ephrin type-A receptor 1 (Homo sapiens) (UniProt P21709); assay: Inhibition of EphA1 (unknown origin) at 1 uM
[3] = target: Calcium/calmodulin-dependent protein kinase kinase 1 (Homo sapiens) (UniProt Q8N5S9); assay: Inhibition of CAMKK1 (unknown origin) at 1 uM
[4] = target: Mitogen-activated protein kinase 13 (Homo sapiens) (UniProt O15264); assay: Inhibition of p38 delta (unknown origin) at 1 uM
[5] = target: Serine/threonine-protein kinase Chk2 (Homo sapiens) (UniProt O96017); assay: Inhibition of CHK2 (unknown origin) at 1 uM
[6] = target: Fibroblast growth factor receptor 1 (Homo sapiens) (UniProt P11362); assay: Inhibition of FGFR1 (unknown origin) at 1 uM
[7] = target: Serine/threonine-protein kinase Sgk2 (Homo sapiens) (UniProt Q9HBY8); assay: Inhibition of SGK2 (unknown origin) at 1 uM
[8] = target: Mitogen-activated protein kinase kinase kinase 5 (Homo sapiens) (UniProt Q99683); assay: Inhibition of ASK1 (unknown origin) at 1 uM
[9] = target: MAP/microtubule affinity-regulating kinase 3 (Homo sapiens) (UniProt P27448); assay: Inhibition of MARK3 (unknown origin) at 1 uM
[10] = target: Serine/threonine-protein kinase 16 (Homo sapiens) (UniProt O75716); assay: Inhibition of STK16 (unknown origin) at 1 uM
[11] = target: CDK8/Cyclin C (Homo sapiens) (UniProt P49336+P24863); assay: Inhibition of CDK8/cyclinC (unknown origin) at 1 uM; format: protein-complex assay
[12] = target: Tyrosine-protein kinase Lyn (Homo sapiens) (UniProt P07948); assay: Inhibition of LYN (unknown origin) at 1 uM
[13] = target: Calcium/calmodulin-dependent protein kinase type 1 (Homo sapiens) (UniProt Q14012); assay: Inhibition of CaMKI (unknown origin) at 1 uM
hERG (KCNH2) = hERG (KCNH2) (Homo sapiens, UniProt Q12809); assay: Inhibition of human ERG at 10 uM
[14] = target: Eukaryotic elongation factor 2 kinase (Homo sapiens) (UniProt O00418); assay: Inhibition of eEF-2K (unknown origin) at 1 uM
[15] = target: Protein kinase C beta type (Homo sapiens) (UniProt P05771); assay: Inhibition of PKC beta1 (unknown origin) at 1 uM
[16] = target: Mitogen-activated protein kinase kinase kinase 9 (Homo sapiens) (UniProt P80192); assay: Inhibition of MLK1 (unknown origin) at 1 uM
[17] = target: Casein kinase I isoform gamma-2 (Homo sapiens) (UniProt P78368); assay: Inhibition of CK1 gamma2 (unknown origin) at 1 uM
[18] = target: Ephrin type-A receptor 7 (Homo sapiens) (UniProt Q15375); assay: Inhibition of EphA7 (unknown origin) at 1 uM
[19] = target: Leucine-rich repeat serine/threonine-protein kinase 2 (Homo sapiens) (UniProt Q5S007); assay: Inhibition of LRRK2 (unknown origin) at 1 uM
[20] = target: NUAK family SNF1-like kinase 1 (Homo sapiens) (UniProt O60285); assay: Inhibition of ARK5 (unknown origin) at 1 uM
[21] = target: Serine/threonine-protein kinase PAK 1 (Homo sapiens) (UniProt Q13153); assay: Inhibition of PAK1 (unknown origin) at 1 uM
[22] = target: Serine/threonine-protein kinase PLK2 (Homo sapiens) (UniProt Q9NYY3); assay: Inhibition of PLK2 (unknown origin) at 1 uM
[23] = target: Dual specificity mitogen-activated protein kinase kinase 1 (Homo sapiens) (UniProt Q02750); assay: Inhibition of MEK1 (unknown origin) at 1 uM
[24] = target: Dual specificity protein kinase CLK1 (Homo sapiens) (UniProt P49759); assay: Inhibition of CLK1 (unknown origin) at 1 uM
[25] = target: Activin receptor type-1B (Homo sapiens) (UniProt P36896); assay: Inhibition of ACVR1B (unknown origin) at 1 uM
[26] = target: 5'-AMP-activated protein kinase catalytic subunit alpha-1 (Homo sapiens) (UniProt Q13131); assay: Inhibition of PRKAA1 (unknown origin) at 1 uM
Monocyte [27] = assay: Inhibition of IC-induced IL-1beta release in human monocytes
[28] = target: Ephrin type-A receptor 3 (Homo sapiens) (UniProt P29320); assay: Inhibition of EphA3 (unknown origin) at 1 uM
[29] = target: BDNF/NT-3 growth factors receptor (Homo sapiens) (UniProt Q16620); assay: Inhibition of TrkB (unknown origin) at 1 uM
[30] = target: Serine/threonine-protein kinase 24 (Homo sapiens) (UniProt Q9Y6E0); assay: Inhibition of MST3 (unknown origin) at 1 uM
[31] = target: Serine/threonine-protein kinase PAK 4 (Homo sapiens) (UniProt O96013); assay: Inhibition of PAK4 (unknown origin) at 1 uM
[32] = target: Ephrin type-B receptor 1 (Homo sapiens) (UniProt P54762); assay: Inhibition of EphB1 (unknown origin) at 1 uM
[33] = target: Activin receptor type-2B (Homo sapiens) (UniProt Q13705); assay: Inhibition of ACVR2B (unknown origin) at 1 uM
[34] = target: Ribosomal protein S6 kinase alpha-3 (Homo sapiens) (UniProt P51812); assay: Inhibition of Rsk2 (unknown origin) at 1 uM
[35] = target: Rho-associated protein kinase 1 (Homo sapiens) (UniProt Q13464); assay: Inhibition of ROCK1 (unknown origin) at 1 uM
Monocyte [36] = assay: Inhibition of IC-induced TNF-alpha release in human monocytes
[37] = target: Protein kinase C alpha type (Homo sapiens) (UniProt P17252); assay: Inhibition of PKC alpha (unknown origin) at 1 uM
[38] = target: Serine/threonine-protein kinase DCLK2 (Homo sapiens) (UniProt Q8N568); assay: Inhibition of DCAMKL2 (unknown origin) at 1 uM
[39] = target: Serine/threonine-protein kinase BRSK1 (Homo sapiens) (UniProt Q8TDC3); assay: Inhibition of BrSK1 (unknown origin) at 1 uM
[40] = target: Serine/threonine-protein kinase mTOR (Homo sapiens) (UniProt P42345); assay: Inhibition of mTOR (unknown origin) at 1 uM
[41] = target: Non-receptor tyrosine-protein kinase TYK2 (Homo sapiens) (UniProt P29597); assay: Inhibition of TYK2 (unknown origin) at 1 uM
[42] = target: Ephrin type-B receptor 3 (Homo sapiens) (UniProt P54753); assay: Inhibition of EphB3 (unknown origin) at 1 uM
[43] = target: Tyrosine-protein kinase ZAP-70 (Homo sapiens) (UniProt P43403); assay: Inhibition of ZAP-70 (unknown origin) at 1 uM
Salmonella typhimurium = assay: Genotoxicity in Salmonella typhimurium TA100 by Ames test in absence of S9 fraction; format: toxicity, organism-based; conditions: salmonella enterica subsp. enterica serovar typhimurium

Sequence of Ephrin type-A receptor 1 (Homo sapiens) (P21709 whole entry): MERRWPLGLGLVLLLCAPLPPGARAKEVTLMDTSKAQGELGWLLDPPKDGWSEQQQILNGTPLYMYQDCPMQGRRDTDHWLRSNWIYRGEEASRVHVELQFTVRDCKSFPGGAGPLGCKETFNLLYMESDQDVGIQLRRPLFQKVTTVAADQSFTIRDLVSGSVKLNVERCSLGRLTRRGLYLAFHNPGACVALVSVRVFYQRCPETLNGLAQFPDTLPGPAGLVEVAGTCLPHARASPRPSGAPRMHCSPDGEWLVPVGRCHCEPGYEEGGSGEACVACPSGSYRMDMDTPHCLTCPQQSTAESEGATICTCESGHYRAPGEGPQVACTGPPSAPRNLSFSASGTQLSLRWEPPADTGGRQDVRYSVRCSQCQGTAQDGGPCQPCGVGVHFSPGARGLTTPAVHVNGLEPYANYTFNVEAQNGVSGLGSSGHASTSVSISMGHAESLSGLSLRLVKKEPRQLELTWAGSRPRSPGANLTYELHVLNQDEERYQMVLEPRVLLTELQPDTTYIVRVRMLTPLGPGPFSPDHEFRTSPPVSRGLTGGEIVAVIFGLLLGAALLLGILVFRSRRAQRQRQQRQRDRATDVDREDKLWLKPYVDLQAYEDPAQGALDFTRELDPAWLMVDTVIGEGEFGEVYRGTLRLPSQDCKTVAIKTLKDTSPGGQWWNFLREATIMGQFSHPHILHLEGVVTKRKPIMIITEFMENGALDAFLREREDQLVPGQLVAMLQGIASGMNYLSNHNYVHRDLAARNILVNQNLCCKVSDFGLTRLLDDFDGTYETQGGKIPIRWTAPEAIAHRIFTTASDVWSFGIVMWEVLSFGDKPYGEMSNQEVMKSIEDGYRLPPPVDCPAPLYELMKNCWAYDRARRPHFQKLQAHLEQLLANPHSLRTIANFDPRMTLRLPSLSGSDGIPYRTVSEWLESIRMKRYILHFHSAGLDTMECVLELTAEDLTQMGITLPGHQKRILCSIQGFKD
Sequence of Ribosomal protein S6 kinase alpha-3 (Homo sapiens) (P51812 whole entry): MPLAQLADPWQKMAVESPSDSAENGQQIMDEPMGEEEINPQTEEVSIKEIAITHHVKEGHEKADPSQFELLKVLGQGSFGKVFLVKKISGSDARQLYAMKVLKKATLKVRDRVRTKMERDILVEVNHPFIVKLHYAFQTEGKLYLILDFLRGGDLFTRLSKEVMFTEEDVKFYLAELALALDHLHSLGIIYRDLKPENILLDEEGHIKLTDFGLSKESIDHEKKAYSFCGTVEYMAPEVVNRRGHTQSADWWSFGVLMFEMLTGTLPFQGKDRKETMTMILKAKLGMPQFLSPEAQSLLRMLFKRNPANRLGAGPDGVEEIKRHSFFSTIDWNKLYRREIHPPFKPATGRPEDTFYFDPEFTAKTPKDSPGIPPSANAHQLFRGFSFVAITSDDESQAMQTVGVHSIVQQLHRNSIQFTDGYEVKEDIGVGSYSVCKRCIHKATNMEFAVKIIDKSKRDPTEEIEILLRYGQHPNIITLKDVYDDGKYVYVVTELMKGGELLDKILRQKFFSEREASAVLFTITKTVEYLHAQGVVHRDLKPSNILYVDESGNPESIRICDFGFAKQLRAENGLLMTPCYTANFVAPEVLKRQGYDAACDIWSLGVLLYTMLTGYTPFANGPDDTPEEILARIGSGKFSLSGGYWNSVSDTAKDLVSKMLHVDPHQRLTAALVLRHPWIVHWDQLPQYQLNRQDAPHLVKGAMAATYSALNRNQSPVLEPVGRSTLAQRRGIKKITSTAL
Sequence of Serine/threonine-protein kinase Chk2 (Homo sapiens) (O96017 whole entry): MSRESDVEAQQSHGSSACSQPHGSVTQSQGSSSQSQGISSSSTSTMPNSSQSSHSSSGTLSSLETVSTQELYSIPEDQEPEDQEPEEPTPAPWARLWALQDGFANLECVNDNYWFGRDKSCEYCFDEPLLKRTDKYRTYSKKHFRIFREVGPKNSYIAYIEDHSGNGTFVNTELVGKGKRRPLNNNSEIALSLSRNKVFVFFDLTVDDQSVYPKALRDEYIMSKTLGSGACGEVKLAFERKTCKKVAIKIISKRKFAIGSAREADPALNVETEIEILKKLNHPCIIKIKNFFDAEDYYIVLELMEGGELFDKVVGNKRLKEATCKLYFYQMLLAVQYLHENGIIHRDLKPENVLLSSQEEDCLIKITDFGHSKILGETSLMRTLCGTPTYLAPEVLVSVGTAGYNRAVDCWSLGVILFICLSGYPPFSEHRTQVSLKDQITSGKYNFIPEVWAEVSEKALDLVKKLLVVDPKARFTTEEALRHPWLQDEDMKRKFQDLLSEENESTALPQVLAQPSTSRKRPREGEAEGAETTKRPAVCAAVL
Sequence of Serine/threonine-protein kinase 16 (Homo sapiens) (O75716 whole entry): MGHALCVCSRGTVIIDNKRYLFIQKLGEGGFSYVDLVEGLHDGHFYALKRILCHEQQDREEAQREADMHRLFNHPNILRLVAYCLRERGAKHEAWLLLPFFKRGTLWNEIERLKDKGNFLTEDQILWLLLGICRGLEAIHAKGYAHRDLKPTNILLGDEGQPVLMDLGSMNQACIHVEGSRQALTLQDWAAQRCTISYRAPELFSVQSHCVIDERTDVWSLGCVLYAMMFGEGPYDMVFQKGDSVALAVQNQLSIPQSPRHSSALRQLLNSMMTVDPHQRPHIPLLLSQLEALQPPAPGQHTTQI
Sequence of Protein kinase C beta type (Homo sapiens) (P05771 2-671 limits assumed): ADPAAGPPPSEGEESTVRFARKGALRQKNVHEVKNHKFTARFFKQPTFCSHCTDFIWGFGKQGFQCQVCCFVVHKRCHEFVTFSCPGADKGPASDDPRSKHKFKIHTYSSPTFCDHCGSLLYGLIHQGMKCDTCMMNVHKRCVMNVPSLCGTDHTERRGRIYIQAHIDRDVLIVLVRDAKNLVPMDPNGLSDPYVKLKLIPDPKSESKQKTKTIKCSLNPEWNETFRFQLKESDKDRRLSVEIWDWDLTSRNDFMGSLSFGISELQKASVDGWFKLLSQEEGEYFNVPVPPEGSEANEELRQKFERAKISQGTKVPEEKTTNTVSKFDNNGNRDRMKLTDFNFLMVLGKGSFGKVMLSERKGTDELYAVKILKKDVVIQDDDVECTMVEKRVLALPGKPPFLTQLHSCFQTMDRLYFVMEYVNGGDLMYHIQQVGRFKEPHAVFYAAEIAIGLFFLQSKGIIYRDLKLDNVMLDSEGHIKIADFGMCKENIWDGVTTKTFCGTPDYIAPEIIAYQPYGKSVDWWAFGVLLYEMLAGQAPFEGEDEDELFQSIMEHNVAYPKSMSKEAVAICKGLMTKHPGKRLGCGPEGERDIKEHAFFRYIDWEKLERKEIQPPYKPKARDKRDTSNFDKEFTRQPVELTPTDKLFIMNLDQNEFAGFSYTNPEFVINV
Sequence of Tyrosine-protein kinase ZAP-70 (Homo sapiens) (P43403 whole entry): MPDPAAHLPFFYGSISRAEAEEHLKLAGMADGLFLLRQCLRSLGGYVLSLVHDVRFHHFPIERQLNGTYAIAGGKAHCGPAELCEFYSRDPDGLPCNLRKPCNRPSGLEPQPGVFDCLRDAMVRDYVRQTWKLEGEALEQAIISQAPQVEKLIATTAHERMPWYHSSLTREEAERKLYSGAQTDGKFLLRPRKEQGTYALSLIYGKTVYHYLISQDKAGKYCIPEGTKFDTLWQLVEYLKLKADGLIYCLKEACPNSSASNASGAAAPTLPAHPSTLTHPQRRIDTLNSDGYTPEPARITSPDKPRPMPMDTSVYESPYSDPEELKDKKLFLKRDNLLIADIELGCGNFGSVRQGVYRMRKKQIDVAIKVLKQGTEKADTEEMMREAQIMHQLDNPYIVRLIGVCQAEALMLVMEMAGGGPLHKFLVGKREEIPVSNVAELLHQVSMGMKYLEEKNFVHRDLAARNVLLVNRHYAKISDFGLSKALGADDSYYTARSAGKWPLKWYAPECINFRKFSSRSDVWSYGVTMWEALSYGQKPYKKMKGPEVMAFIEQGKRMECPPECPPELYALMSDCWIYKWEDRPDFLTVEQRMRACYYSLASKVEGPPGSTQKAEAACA
Sequence of Ephrin type-B receptor 3 (Homo sapiens) (P54753 whole entry): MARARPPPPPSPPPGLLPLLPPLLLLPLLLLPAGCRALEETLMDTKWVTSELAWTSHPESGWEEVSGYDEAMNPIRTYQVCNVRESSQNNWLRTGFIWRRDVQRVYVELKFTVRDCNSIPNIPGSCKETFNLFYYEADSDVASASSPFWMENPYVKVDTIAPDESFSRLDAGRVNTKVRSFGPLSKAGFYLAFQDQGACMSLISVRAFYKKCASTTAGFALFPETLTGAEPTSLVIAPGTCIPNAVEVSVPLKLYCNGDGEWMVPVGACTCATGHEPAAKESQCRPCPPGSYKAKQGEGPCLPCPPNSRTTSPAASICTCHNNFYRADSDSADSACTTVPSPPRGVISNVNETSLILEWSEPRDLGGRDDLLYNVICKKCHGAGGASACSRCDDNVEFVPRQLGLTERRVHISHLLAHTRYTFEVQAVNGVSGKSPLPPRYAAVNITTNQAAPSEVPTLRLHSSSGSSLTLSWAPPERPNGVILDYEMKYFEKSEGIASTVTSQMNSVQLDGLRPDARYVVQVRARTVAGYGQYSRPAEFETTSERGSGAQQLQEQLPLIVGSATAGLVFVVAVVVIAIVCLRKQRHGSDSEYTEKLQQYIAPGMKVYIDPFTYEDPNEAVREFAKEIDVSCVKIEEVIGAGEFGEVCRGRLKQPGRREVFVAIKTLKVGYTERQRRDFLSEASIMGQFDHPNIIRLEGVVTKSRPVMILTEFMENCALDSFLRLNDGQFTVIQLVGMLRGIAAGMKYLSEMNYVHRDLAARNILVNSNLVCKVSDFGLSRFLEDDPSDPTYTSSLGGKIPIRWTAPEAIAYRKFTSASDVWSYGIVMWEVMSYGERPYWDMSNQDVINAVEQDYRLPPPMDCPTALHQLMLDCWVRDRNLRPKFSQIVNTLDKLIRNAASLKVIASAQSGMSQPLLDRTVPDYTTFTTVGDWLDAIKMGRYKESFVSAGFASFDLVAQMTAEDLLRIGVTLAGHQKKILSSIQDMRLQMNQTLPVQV

`Cc1c(-c2cc(Nc3cc4n(n3)CCN(C)C4)c(=O)[nH]n2)ccc(F)c1NC(=O)c1cc2ccccc2s1` showed an inhibition [1] of -6.9%, an inhibition [2] of 2.2% and an inhibition [3] of -5.4%. It also gave an inhibition [4] of 8.6%, an inhibition [5] of -3.8% and an inhibition [6] of -3.1%. It also gave an inhibition [7] of -2.3%, an inhibition [8] of -2.1% and an inhibition [9] of -5.4%. It also gave an inhibition [10] of 11%, an inhibition [11] of 1% and an inhibition [12] of 23.1%. For the same compound, the inhibition [13] was 6.3%, the inhibition at 10 µM (hERG (KCNH2)) was 27% and the inhibition [14] was 3%. It also gave an inhibition [15] of 0.2%, an inhibition [16] of -7.5% and an inhibition [17] of 1.9%. It also gave an inhibition [18] of -2%, an inhibition [19] of 4.7% and an inhibition [20] of -3.8%. It also gave an inhibition [21] of 3.4%, an inhibition [22] of 5.8% and an inhibition [23] of 4.5%. For the same compound, the inhibition [24] was 5%, the inhibition [25] was -3.9% and the inhibition [26] was -2.2%. The EC50 (Monocyte [27]) was 22 nM, the inhibition [28] was -3.9% and the inhibition [29] was -3.6%. It also gave an inhibition [30] of 9%, an inhibition [31] of 6.2% and an inhibition [32] of 3.2%. The inhibition [33] was 4.5%, the inhibition [34] was 1.9% and the inhibition [35] was -4.8%. It also gave an EC50 (Monocyte [36]) of 37 nM, an inhibition [37] of -2.1% and an inhibition [38] of -1.2%. It also gave an inhibition [39] of 0.8%, an inhibition [40] of 1.1% and an inhibition [41] of 4.3%. The inhibition [42] was 2.5%, the inhibition [43] was 8.1% and the Activity (Salmonella typhimurium) was “Non-toxic”.
